Assay results: US8124365B2, “Identification of genotype-selective anti-tumor agents” (Whitehead Institute for Biomedical Research, priority 2003, dated 2012)

Assays:
Assay type in all cases: cell-based, human
[1] = test system: BJ-TERT/LT/ST/RAS^V12 cells; experiment: DNA fragmentation (DNA ladder formation)
[2] = test system: BJ-TERT/LT/ST/RAS^V12 cells; experiment: Calcein AM viability assay, dilution series, BJ-TERT/LT/ST/RAS^V12 tumorigenic cells
Procedure: Described here is work carried out to identify compounds with increased potency or activity in the presence of hTERT, LT, ST, E6, E7 or RAS^V12. […] The primary screen tested (in quadruplicate) the effect of treating tumorigenic […], corresponding to 10 μM for a compound with a molecular weight of 400, which is the approximate median molecular weight of the libraries. […] In live cells, calcein AM is cleaved by intracellular esterases, forming the anionic fluorescent derivative calcein, which cannot diffuse out of live cells. […] The IC50 value (concentration required to inhibit 50% of the calcein AM signal) was calculated for each compound in each cell line (Table 1).
Calcein acetoxylmethyl ester (AM) is a cell membrane-permeable, non-fluorescent compound that is cleaved by intracellular esterases to form the anionic, cell-impermeable, fluorescent compound calcein. Viable cells are stained by calcein because of the presence of intracellular esterases and because the intact plasma membrane prevents fluorescent calcein from leaking out of cells (Wang et al., 1993, supra). Cells were seeded in 384-well plates using a Zymark Sciclone ALH, treated with each […], washed with phosphate-buffered saline on a Packard Minitrak with a 384-well washer and incubated for four hours with 0.7 μg/mL calcein (Molecular Probes). Total fluorescence intensity in each well was recorded on a Packard Fusion platereader, and converted to a percent inhibition of signal by subtracting the instrument background and dividing by the average signal obtained when cells were not treated with any compound.
Compounds to be retested were purchased from manufacturers. Stocks were prepared in DMSO at a concentration of 1 mg/ml in 384-well polypropylene plates with a 16-point, two-fold dilution dose curve of each compound in a column, in duplicates. Column 1-2 and 23-24 were left empty for controls. Daughter retest plates were prepared from stock retest plate by diluting 66.6 fold in DMEM in 384-well deep-deep well plates (4.5 μl transfer into 300 μl). Cells were seeded at a density of 6000 per well in 40 μl, and 20 μl was added from a daughter retest plate. […]
The IC50 in primary BJ cells was divided by the IC50 in BJ-TERT/LT/ST/RAS^V12 tumorigenic cells to obtain a tumor selectivity ratio for each compound. The compound selectivity for each genetic element was determined by calculating the selectivity ratio for each subsequent pair of cell lines in a series.

[3] = test system: BJ-TERT/LT/ST/RAS^V12 cells; experiment: Nuclear morphology assay; conditions: fluorescence microscopy, 9 μM erastin or 1.1 μM camptothecin, 18 hours
Procedure: 200,000 tumorigenic BJ-TERT/LT/ST/RAS^V12 cells were seeded in 2 mL on glass coverslips in each well of a six-well dish, treated with nothing (NT), 9 μM erastin or 1.1 μM camptothecin (CPT) in growth medium for 18 hours while incubating at 37° C. with 5% CO2. Nuclei were stained with 25 μg/mL Hoechst 33342 (Molecular Probes) and viewed using an oil immersion 100× objective on a fluorescence microscope.

caspase 3 = experiment: Western blot for active, cleaved caspase 3; conditions: lysates of treated BJ-TERT/LT/ST/RAS^V12 cells
Procedure: BJ-TERT/LT/ST/RAS^V12 cells were seeded prior to the experiment at 5×10^5 cells in 60 mm dishes. The cells were treated with 5 μg/ml erastin (9 μM) for 2, 4, 6, 8 or 10 hours. One dish was maintained for camptothecin treatment (0.4 μg/ml for 24 h) as a positive control. Cells were lysed after each time point in lysis buffer (50 mM HEPES KOH pH 7.4, […], 2 mM EDTA, 0.5% Triton X-100, 1.5 mM Na3VO4, 50 mM NaF, 10 mM sodium pyrophosphate, 10 mM sodium beta-glycerophosphate and protease inhibitor tablet (Roche)). Protein content was quantified using a Biorad protein assay reagent. Equal amounts of protein were resolved on 16% SDS-polyacrylamide gel. The electrophoresed proteins were transblotted onto a PVDF membrane, blocked with 5% milk and incubated with anti-active caspase-3 polyclonal antibody (BD Pharmingen) at 1:1500 dilution overnight at 4° C. The membrane was then incubated in anti-rabbit-HRP (Santa Cruz Biotechnology) at 1:3000 dilution for 1 hour and developed with an enhanced chemiluminescence mixture (NEN life science, Renaissance). To test for equivalent loading in each lane, blots were stripped, blocked, and probed with an anti-eIF-4E antibody (BD Transduction laboratories) at 1:1000 dilution.

BJ cells = experiment: Calcein AM viability assay, dilution series, BJ primary cells; conditions: two days
From the text: Described here is work carried out to identify compounds with increased potency or activity in the presence of hTERT, LT, ST, E6, E7 or RAS^V12. Engineered cell lines with these genetic elements were used to screen 23,550 compounds, including 20,000 compounds from a combinatorial library, 1,990 compounds from the National Cancer Institute diversity collection, and 1,540 biologically active known compounds that were selected and purchased by Applicant and formatted into a screenable collection. […] Cell viability was measured using the dye calcein acetoxymethyl ester (calcein AM) (Wang et al., 1993, Hum. Immunol. 37, 264-270), which is a non-fluorescent compound that freely diffuses into cells. […]
Calcein acetoxylmethyl ester (AM) is a cell membrane-permeable, non-fluorescent compound that is cleaved by intracellular esterases to form the anionic, cell-impermeable, fluorescent compound calcein. […] Total fluorescence intensity in each well was recorded on a Packard Fusion platereader, and converted to a percent inhibition of signal by subtracting the instrument background and dividing by the average signal obtained when cells were not treated with any compound. […]
Mean RFU (relative fluorescence units) for untreated cells was calculated by averaging columns 1, 2, and 23 (wells with cells but lacking compounds). […]

Row | SMILES | DNA fragmentation (formation of a DNA ladder) [1] | time required to cause death ([2]; BJ-TERT/LT/ST/RAS^V12 cells) | nuclear morphology (karyorhexis, margination of chromatin) [3] | activated (cleaved) caspase 3 (caspase 3) | IC50, concentration required to achieve 50% inhibition of calcein AM staining, BJ (BJ cells) | IC50, 50% inhibition of calcein AM staining, BJ-TERT/LT/ST/Ras^v12 ([2]; BJ-TERT/LT/ST/Ras^v12 cells, two days) | Tumor Selectivity ([2]; IC50 in primary BJ cells divided by IC50 in BJ-TERT/LT/ST/RAS^V12 tumorigenic cells)
1 | CC[C@@]1(O)C(=O)OCc2c1cc1n(c2=O)Cc2cc3ccccc3nc2-1 [Camptothecin, camptothecin] | induces DNA fragmentation | two days | karyorhexis and margination of chromatin were clearly visible | harbor activated caspase 3 |  |  | 
2 | Cc1c2ccccc2c(CSC(=N)N)c2ccccc12.Cl [NSC146109] |  |  |  |  | >5 µg/mL | 2.5 µg/mL | >4
